{
  "source": "patent US20070265288A1",
  "about": "(priority 2004, published 2007)",
  "key": {"[1]": {"assay": "Forced degradation (stress) study of imatinib mesylate alpha form", "type": "physicochemical"}, "[2]": {"assay": "Hygroscopicity of the crystal form according to the invention", "type": "physicochemical"}, "[3]": {"details": "alpha form obtained by process of WO 99/03854; cited from earlier work"}, "[4]": {"details": "60° C. for 48 hours, listed as RD/IMT-4/31"}, "[5]": {"details": "60° C. for 48 hours, listed as RD/IMT-4/34"}, "[6]": {"details": "105° C. for 12 hours, listed as RD/IMT-4/31"}, "[7]": {"details": "105° C. for 12 hours, listed as RD/IMT-4/34"}, "[8]": {"details": "As such (i.e. no stress condition)"}, "[9]": {"details": "As such (i.e. no stress condition), listed as RD/IMT-4/31"}, "[10]": {"details": "As such (i.e. no stress condition), listed as RD/IMT-4/34"}, "[11]": {"details": "UV −45° C. 75 RH for 12 hours, listed as RD/IMT-4/31"}, "[12]": {"details": "UV −45° C. 75 RH for 12 hours, listed as RD/IMT-4/34"}},
  "note": "Where two headings read alike, the source gives them in different places.",
  "data": [
    {"smiles": "CS(=O)(=O)O.Cc1ccc(NC(=O)c2ccc(CN3CCN(C)CC3)cc2)cc1Nc1nccc(-c2cccnc2)n1", "note": "[imatinib mesylate]", "values": [
      {"measurement": "DSC", "setting": "[1]; 60° C. for 48 hours", "value": "Complies"},
      {"measurement": "XRPD", "setting": "[1]; 60° C. for 48 hours", "value": "Complies"},
      {"measurement": "DESCRIPTION", "setting": "[1]; [4]", "value": "Pale yellow"},
      {"measurement": "Purity", "setting": "[1]; [4]", "value": 99.44, "unit": "%"},
      {"measurement": "Single Max. impurity", "setting": "[1]; [4]", "value": 0.20, "unit": "%"},
      {"measurement": "DESCRIPTION", "setting": "[1]; [5]", "value": "Cream coloured"},
      {"measurement": "Purity", "setting": "[1]; [5]", "value": 99.17, "unit": "%"},
      {"measurement": "Single Max. impurity", "setting": "[1]; [5]", "value": 0.30, "unit": "%"},
      {"measurement": "DSC", "setting": "[1]; 105° C. for 12 hours", "value": "Complies"},
      {"measurement": "XRPD", "setting": "[1]; 105° C. for 12 hours", "value": "Complies"},
      {"measurement": "DESCRIPTION", "setting": "[1]; [6]", "value": "Pale yellow"},
      {"measurement": "Purity", "setting": "[1]; [6]", "value": 99.49, "unit": "%"},
      {"measurement": "Single Max. impurity", "setting": "[1]; [6]", "value": 0.17, "unit": "%"},
      {"measurement": "DESCRIPTION", "setting": "[1]; [7]", "value": "Cream coloured"},
      {"measurement": "Purity", "setting": "[1]; [7]", "value": 99.18, "unit": "%"},
      {"measurement": "Single Max. impurity", "setting": "[1]; [7]", "value": 0.32, "unit": "%"},
      {"measurement": "DSC", "setting": "[1]; [8]", "value": "Complies"},
      {"measurement": "XRPD", "setting": "[1]; [8]", "value": "Complies"},
      {"measurement": "DESCRIPTION", "setting": "[1]; [9]", "value": "Pale yellow"},
      {"measurement": "Purity", "setting": "[1]; [9]", "value": 99.45, "unit": "%"},
      {"measurement": "Single Max. impurity", "setting": "[1]; [9]", "value": 0.18, "unit": "%"},
      {"measurement": "DESCRIPTION", "setting": "[1]; [10]", "value": "Cream coloured"},
      {"measurement": "Purity", "setting": "[1]; [10]", "value": 99.26, "unit": "%"},
      {"measurement": "Single Max. impurity", "setting": "[1]; [10]", "value": 0.33, "unit": "%"},
      {"measurement": "DSC", "setting": "[1]; UV −45° C. 75 RH for 12 hours", "value": "Complies"},
      {"measurement": "XRPD", "setting": "[1]; UV −45° C. 75 RH for 12 hours", "value": "Complies"},
      {"measurement": "DESCRIPTION", "setting": "[1]; [11]", "value": "Pale yellow"},
      {"measurement": "Purity", "setting": "[1]; [11]", "value": 99.38, "unit": "%"},
      {"measurement": "Single Max. impurity", "setting": "[1]; [11]", "value": 0.19, "unit": "%"},
      {"measurement": "DESCRIPTION", "setting": "[1]; [12]", "value": "Cream coloured"},
      {"measurement": "Purity", "setting": "[1]; [12]", "value": 99.18, "unit": "%"},
      {"measurement": "Single Max. impurity", "setting": "[1]; [12]", "value": 0.34, "unit": "%"},
      {"measurement": "polymorphic stability by DSC and XRPD evaluation", "setting": "[1]; before and after stress study", "value": "polymorphically stable"},
      {"measurement": "polymorphic identity under stress conditions", "setting": "[1]; stress conditions such as milling or heating", "value": "retain the polymorphic identity"},
      {"measurement": "level of impurities before and after stability study", "setting": "[1]; stress: 60° C. 48 hours, 105° C. 12 hours, UV 45° C. at 75% RH 12 hours", "value": "no increase in the level of impurities"},
      {"measurement": "hygroscopicity", "setting": "[2]", "value": "non-hygroscopic"},
      {"measurement": "HPLC single maximum impurity content", "setting": "Initial", "value": 0.23, "unit": "wt %"},
      {"measurement": "HPLC total impurity content", "setting": "Initial", "value": 0.50, "unit": "wt %"},
      {"measurement": "Water content", "setting": "Initial", "value": 0.39, "unit": "wt %"},
      {"measurement": "HPLC single maximum impurity content", "setting": "after 6 months", "value": 0.11, "unit": "wt %"},
      {"measurement": "HPLC total impurity content", "setting": "after 6 months", "value": 0.33, "unit": "wt %"},
      {"measurement": "Water content", "setting": "after 6 months", "value": 0.61, "unit": "wt %"},
      {"measurement": "HPLC single maximum impurity content", "setting": "after 12 months", "value": 0.15, "unit": "wt %"},
      {"measurement": "HPLC total impurity content", "setting": "after 12 months", "value": 0.41, "unit": "wt %"},
      {"measurement": "Water content", "setting": "after 12 months", "value": 0.58, "unit": "wt %"},
      {"measurement": "stability on storage", "setting": "storage at ambient temperature", "value": "stable chemically and polymorphically"}
    ]},
    {"smiles": "CS(=O)(=O)O.Cc1ccc(NC(=O)c2ccc(CN3CCN(C)CC3)cc2)cc1Nc1nccc(-c2cccnc2)n1", "note": "[alpha-crystalline form]", "values": [
      {"measurement": "hygroscopicity", "setting": "[3]", "value": "highly hygroscopic"},
      {"measurement": "stability", "setting": "[3]", "value": "not stable"}
    ]}
  ]
}
